CC50, EC50 and IC50 data for six compounds are collected here from patent US11952365B2, “Anti-viral compounds” (Aligos Therapeutics, Inc., priority 2020, dated 2024).

Data set [1] can be described thus: in vitro. To be noted: human.
Data set [2] relates to SARS-CoV-2-GHB-03021/2020. Briefly: microbe, parasite or virus in culture. The data set is classed as cell-based. To be noted: Severe acute respiratory syndrome coronavirus 2, Vero C1008, 96 h; read-out: VeroE6 + CP (EC50).
For data set [3], the system named is human beta-coronavirus OC43. The data set can be described thus: microbe, parasite or virus in culture. The format is cell-based. To be noted: Betacoronavirus 1, OC43, HeLa, 144 h, OC43 in HeLa cells, 6 days at 33° C., read-out: EC50.
The target in another data set is T1, human cathepsin L (Homo sapiens, UniProt P07711).
T1 construct: purchased R&D Systems
Briefly: cathepsin L assay. The data set is classed as biochemical. To be noted: 10 pM human cathepsin L, Z-FR-AMC 2 μM, class symbols. Put shortly:
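Human cathepsin L at 10 pM was preincubated 30 min with compound, then reaction started with Z-FR-AMC (2 μM final). Fluorescence (355/460 nm) read every 2 min for 30 min; IC50 from four-parameter curve fit.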

For data set [4], the system named is SARS-CoV-2-GHB-03021/2020. Briefly: SARS-CoV-2 Infection Model in Huh7 Cells. The data set is classed as cell-based. To be noted: Severe acute respiratory syndrome coronavirus 2, Huh-7, 96 h, SARS-CoV-2, day 4 p.i., MTS.
Data set [5] in a line: Cytotoxicity plates without OC43 virus (cell-titer-glo). As to conditions: human; HeLa cells without OC43 virus, class symbols. The data set is classed as cell-based, human. In a few lines:
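HeLa cells seeded overnight, then treated with serially diluted compounds in 2% FBS EMEM, uninfected, in parallel with the OC43 antiviral plates. Incubated 6 days at 33 °C; viability read by CellTiter-Glo luminescence.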

The target of the next data set is 3CLpro (Severe acute respiratory syndrome coronavirus 2, UniProt P0DTD1). The data set can be described thus: SARS-CoV-2 3CLpro protease assay (duplex, SAMDI-MS). The data set is classed as biochemical. On the set-up: For the duplex assay, 3CLpro and HRV3C was added. As to conditions: 3CLpro, 30 mins preincubation, read-out: SARS-Cov-2 IC50.
Data set [6] is described as follows: in vitro. As to conditions: African green monkey, VeroE6 + CP (CC50), Vero E6-eGFP cells with CP-100356, absence of virus, MTS; numeric bounds.
For another data set, the target named is HRV3C (Human rhinovirus 14, UniProt P03303). Briefly: HRV3C protease assay (duplex, SAMDI-MS). The data set is classed as biochemical, HRV. To be noted: 30 mins preincubation. In a few lines:
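Duplex format with 3CLpro; 30 min enzyme–compound preincubation, 30 min reaction with two peptide substrates, ambient temp. Stop: 0.5% formic acid, neutralized with 1% NaHCO3 (finals). Readout SAMDI-MS, product AUC over internal standard AUC; four-parameter IC50.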

Setting [7] is: HRV3C, class symbols, read-out: HRV IC50.

Where two headings read alike, the source gives them in different places.

In general, EC50 refers to the concentration giving half of the maximal effect. By IC50 is commonly meant the point on the concentration scale where inhibition reaches its midpoint. For `COc1ccc(Br)c2[nH]c(C(=O)N3C[C@@H]4CCC[C@@H]4[C@H]3C(=O)N[C@@H](C[C@@H]3CCNC3=O)C(=O)CO)cc12` [Compound 124, (1S,3aR,6aS)-2-(7-bromo-4-methoxy-1H-indole-2-carbonyl)-N-[(2S)-4-hydroxy-3-oxo-1-[(3S)-2-oxopyrrolidin-3-yl]butan-2-yl]-hexahydro-1H-cyclopenta[c]pyrrole-1-carboxamide], the CC50 in the data set “in vitro [1]” and in “in vitro [6]” was greater than 50 µM in each case. Further, the EC50 was less than 1 µM in data set [2], 0.1 to 1 µM in data set [3] (class symbols) and less than 1 µM in data set [4] (class symbols). Further, the values for the half-inhibitory concentration (IC50) on human cathepsin L, at 3CLpro (class symbols) and at HRV3C (setting [7]) were no less than 10 µM, less than 0.02 µM and 2 to 20 µM, respectively. Moreover, the CC50 at 6 days in data set [5] is greater than 10 µM.

For `O=C(NC1CC1)C(=O)[C@H](C[C@@H]1CCNC1=O)NC(=O)[C@@H]1CC2(CCN1C(=O)c1cc3c(Cl)cccc3[nH]1)CC2` [Compound 145], the CC50 in “in vitro [1]” and in “in vitro [6]” was greater than 50 µM in each case. In addition, the concentration giving a half-maximal response (EC50) was 10 to 100 µM in data set [2], 1 to 10 µM in [3] (class symbols) and 10 to 100 µM in [4] (class symbols). Further, the half-maximal inhibitory concentration (IC50) against human cathepsin L was 0.1 to 1 µM; on 3CLpro (class symbols), less than 0.02 µM; at HRV3C (setting [7]), 0.02 to 0.2 µM. Also, the CC50 at 6 days in data set [5] was greater than 10 µM.

As to `O=C1NCCC[C@H]1C[C@H](NC(=O)[C@@H]1[C@H]2CCC[C@H]2CN1C(=O)c1cc2ccccc2[nH]1)C(O)S(=O)(=O)O` (stereo partly drawn) [Compound 58, sodium (2S)-2-{[(1S,3aR,6aS)-2-(1H-indole-2-carbonyl)-hexahydro-1H-cyclopenta[c]pyrrol-1-yl]formamido}-1-hydroxy-3-[(3S)-2-oxopiperidin-3-yl]propane-1-sulfonate], the CC50 in “in vitro [1]” and in “in vitro [6]” was greater than 100 µM in each case. In addition, the EC50 was less than 1 µM in data set [2], 0.1 to 1 µM in data set [3] (class symbols) and less than 1 µM in data set [4] (class symbols). Further, the IC50 was 1 to 10 µM against human cathepsin L; less than 0.02 µM on 3CLpro (class symbols); 0.02 to 0.2 µM at HRV3C (HRV IC50, HRV3C, class symbols). In addition, in data set [5], the CC50 at 6 days is greater than 10 µM.

Turning to `O=C(NCc1ccccc1)C(=O)[C@H](C[C@@H]1CCNC1=O)NC(=O)[C@@H]1C[C@@]2(CN1C(=O)c1cc3ccccc3[nH]1)CC2(F)F` [Compound 23], the CC50 in the data set “in vitro [1]” and in “in vitro [6]” was greater than 100 µM in each case. Moreover, the EC50 was in the range of 1 to 10 µM in [2], 0.1 to 1 µM in data set [3] (class symbols) and 1 to 10 µM in data set [4] (class symbols). Further, the IC50 was 0.1 to 1 µM on human cathepsin L, 0.02 to 0.2 µM on 3CLpro (class symbols) and 2 to 20 µM at HRV3C (setting [7]). In [5], this compound registered a CC50 at 6 days greater than 10 µM.

As to `O=C1NCC[C@H]1C[C@H](NC(=O)[C@@H]1[C@H]2CCC[C@H]2CN1C(=O)c1cc2c(OC3CC3)cc(Cl)cc2[nH]1)C(=O)CO` [Compound 138, (1S,3aR,6aS)-2-(6-chloro-4-cyclopropoxy-1H-indole-2-carbonyl)-N-[(2S)-4-hydroxy-3-oxo-1-[(3S)-2-oxopyrrolidin-3-yl]butan-2-yl]-hexahydro-1H-cyclopenta[c]pyrrole-1-carboxamide], the CC50 in the data set “in vitro [1]” and in the data set “in vitro [6]” was greater than 50 µM throughout. The 50% effective concentration (EC50) is 1 to 10 µM in [2], less than 0.1 µM in data set [3] (class symbols) and less than 1 µM in data set [4] (class symbols). Also, the results for the IC50 against human cathepsin L, at 3CLpro (class symbols) and at HRV3C (setting [7]) were no less than 10 µM, less than 0.02 µM and 2 to 20 µM, respectively. The same compound returned a CC50 at 6 days in data set [5] greater than 10 µM.

Consider `COc1cccc2[nH]c(C(=O)N3C[C@@H]4CCC[C@@H]4[C@H]3C(=O)N[C@@H](C[C@@H]3CCNC3=O)C(=O)C(=O)N(C)C)cc12` [Compound 110], for which the CC50 in “in vitro [1]” and in “in vitro [6]” was greater than 50 µM each time. In addition, the EC50 in [2] was greater than 50 µM; in data set [3] (bound), greater than 10 µM; in data set [4] (numeric bounds) it was greater than 50 µM. The IC50 against human cathepsin L was no less than 10 µM; on 3CLpro (bound), greater than 10 µM; at HRV3C (HRV3C, bound, read-out: HRV IC50), greater than 10 µM. This compound also returned a CC50 at 6 days in [5] greater than 10 µM.
